The text below walks through data of patent US11472795B2, “1H-indazole-3-carboxamide compounds as glycogen synthase kinase 3 beta inhibitors” (AZIENDE CHIMICHE RIUNITE ANGELINI FRANCESCO—A.C.R.A.F. …, priority 2018, dated 2022).

Bounds are passed on as bounds.

The target of one series is hERG ion channel (Homo sapiens (Human), UniProt Q12809). As to the method:
(2006), Expert Opin. Ther. Targets, 10 (2): 230-241 using the recombinant human cell line CHO-K1, which stably expresses the hERG ion channel.
The degree of inhibition (%) was obtained by measuring the tail current amplitude, which is induced by a one second test pulse to −40 mV after a two second pulse to +20 mV, before and after drug incubation (the difference current was normalized to control and multiplied by 100 to obtain the percent of inhibition). […] The concentration response relationship of each compound was constructed from the percentage reductions of current amplitude by sequential concentrations.

For another series, the target named is human GSK-3β (Homo sapiens (Human), UniProt P49841). Briefly: Test I - Activity on human GSK-3β (LANCE substrate phosphorylation). The format is biochemical. The settings on record: human recombinant GSK-3β, 90 minutes at 22° C., five concentrations 10 μM to 1 nM, duplicate; read-out: GSK-33 IC50. As for the experimental part:
Human recombinant enzyme GSK-3β was incubated for 90 minutes at 22° C. in the presence of compounds or vehicle in a reaction buffer containing ATP plus 100 nM unphosphorylated specific substrate peptide (Ulight-[…]-amide). Substrate phosphorylation was measured by LANCE technology (PerkinElmer, CT, USA).

Sequence of hERG ion channel (Q12809 whole entry): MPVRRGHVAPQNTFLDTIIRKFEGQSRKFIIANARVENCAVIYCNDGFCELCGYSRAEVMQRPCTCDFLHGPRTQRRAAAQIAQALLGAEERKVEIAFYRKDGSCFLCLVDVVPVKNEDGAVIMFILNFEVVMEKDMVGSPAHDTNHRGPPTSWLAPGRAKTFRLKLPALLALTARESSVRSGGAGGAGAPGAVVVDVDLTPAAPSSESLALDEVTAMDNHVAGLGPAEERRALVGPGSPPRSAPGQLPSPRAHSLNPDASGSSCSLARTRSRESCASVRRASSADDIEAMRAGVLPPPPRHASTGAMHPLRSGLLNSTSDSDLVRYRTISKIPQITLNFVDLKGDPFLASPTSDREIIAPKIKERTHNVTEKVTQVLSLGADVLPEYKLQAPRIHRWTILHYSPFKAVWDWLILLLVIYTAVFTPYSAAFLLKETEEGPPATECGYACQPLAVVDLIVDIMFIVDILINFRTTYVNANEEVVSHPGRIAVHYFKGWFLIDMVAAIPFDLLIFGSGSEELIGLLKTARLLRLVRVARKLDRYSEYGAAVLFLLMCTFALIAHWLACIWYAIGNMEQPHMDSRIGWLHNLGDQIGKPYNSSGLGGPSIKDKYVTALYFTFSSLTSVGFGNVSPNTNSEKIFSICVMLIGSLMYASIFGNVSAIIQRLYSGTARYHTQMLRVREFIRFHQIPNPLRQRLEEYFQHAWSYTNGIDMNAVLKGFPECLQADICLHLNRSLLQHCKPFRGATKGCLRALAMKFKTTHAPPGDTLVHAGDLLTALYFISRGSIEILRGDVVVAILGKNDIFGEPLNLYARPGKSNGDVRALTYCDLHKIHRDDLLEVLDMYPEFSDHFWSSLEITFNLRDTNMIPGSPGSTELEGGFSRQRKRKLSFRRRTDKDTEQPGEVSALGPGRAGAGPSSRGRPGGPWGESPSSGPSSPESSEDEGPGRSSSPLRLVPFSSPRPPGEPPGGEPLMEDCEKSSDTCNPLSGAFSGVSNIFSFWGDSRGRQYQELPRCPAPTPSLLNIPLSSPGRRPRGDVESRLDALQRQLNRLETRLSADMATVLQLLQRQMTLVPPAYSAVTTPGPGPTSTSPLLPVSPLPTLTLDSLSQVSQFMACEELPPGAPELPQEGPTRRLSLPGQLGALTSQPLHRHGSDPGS
Sequence of human GSK-3β (P49841 whole entry): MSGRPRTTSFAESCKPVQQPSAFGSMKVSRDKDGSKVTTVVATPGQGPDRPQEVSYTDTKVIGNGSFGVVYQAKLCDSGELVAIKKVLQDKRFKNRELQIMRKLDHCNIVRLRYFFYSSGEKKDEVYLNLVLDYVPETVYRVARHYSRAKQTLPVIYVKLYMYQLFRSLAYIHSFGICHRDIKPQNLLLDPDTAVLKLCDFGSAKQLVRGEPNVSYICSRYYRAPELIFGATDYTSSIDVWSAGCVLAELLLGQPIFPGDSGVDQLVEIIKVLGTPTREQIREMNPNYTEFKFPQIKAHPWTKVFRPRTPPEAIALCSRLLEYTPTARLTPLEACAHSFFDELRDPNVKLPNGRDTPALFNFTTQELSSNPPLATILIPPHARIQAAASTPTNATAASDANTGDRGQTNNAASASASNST

For `CC(C)Oc1cncc(-c2ccc3[nH]nc(C(=O)NCC4CCOC4)c3c2)c1` (centres unmarked) [Compound 4, 5-(5-Isopropoxypyridin-3-yl)-N-((tetrahydrofuran-3-yl)methyl)-1H-indazole-3-carboxamide], the IC50 against hERG ion channel came to 6.2 µM; on human GSK-3β, 17 nM. In addition, the “hERG/GSK-3β Ratio” value at hERG ion channel is 365.

In the case of `COCc1cncc(-c2ccc3[nH]nc(C(=O)NCC4CCS(=O)(=O)C4)c3c2)c1` (centres unmarked) [Compound 5], the IC50 against hERG ion channel was > 100 µM; on human GSK-3β it was 16 nM.

Consider `O=C(NC1CCS(=O)(=O)C1)c1n[nH]c2ccc(-c3cncc(CO)c3)cc12` (centres unmarked) [Compound 6, 5-(5-(Hydroxymethyl)pyridin-3-yl)-N-(1,1-dioxidotetrahydrothiophen-3-yl)-1H-indazole-3-carboxamide], for which the IC50 against hERG ion channel was > 100 µM; on human GSK-3β, 17 nM.

For `CC(C)Oc1cncc(-c2ccc3[nH]nc(C(=O)NCC4CCS(=O)(=O)C4)c3c2)c1` (centres unmarked) [Compound 11], the IC50 is 5.4 µM against hERG ion channel and 12 nM at human GSK-3β. Moreover, on hERG ion channel, the “hERG/GSK-3β Ratio” value turned out to be 450.

For the molecule `O=C(NCC1CCCCO1)c1n[nH]c2ccc(-c3cccc(F)c3F)cc12` (centres unmarked) [Compound 14, 5-(2,3-Difluorophenyl)-N-((tetrahydro-2H-pyran-2-yl)methyl)-1H-indazole-3-carboxamide], the IC50 was > 100 µM against hERG ion channel and 436 nM on human GSK-3β.

As for `CN(C)Cc1cncc(-c2ccc3[nH]nc(C(=O)NCC4CCOCC4)c3c2)c1` [Compound 16, 5-(5-((Dimethylamino)methyl)pyridin-3-yl)-N-((tetrahydro-2H-pyran-4-yl)methyl)-1H-indazole-3-carboxamide], on hERG ion channel, half-maximal inhibition (IC50) was put at 44 µM and the “hERG/GSK-3β Ratio” value is 1,913. For the same molecule, on human GSK-3β, the IC50 turned out to be 23 nM.

For the molecule `O=C(NCC1CCOCC1)c1n[nH]c2ccc(-c3cncc(CN4CCCC4)c3)cc12` [Compound 17, 5-(5-(Pyrrolidin-1-ylmethyl)pyridin-3-yl)-N-((tetrahydro-2H-pyran-4-yl)methyl)-1H-indazole-3-carboxamide], at hERG ion channel, the IC50 stood at 6.7 µM and the “hERG/GSK-3β Ratio” value is recorded as 394. Also, the IC50 on human GSK-3β amounted to 17 nM.

In the case of `O=C(NCC1CCOCC1)c1n[nH]c2ccc(-c3cnccc3CN3CCCC3)cc12` [Compound 19, 5-(4-(Pyrrolidin-1-ylmethyl)pyridin-3-yl)-N-((tetrahydro-2H-pyran-4-yl)methyl)-1H-indazole-3-carboxamide], at hERG ion channel, 16 µM corresponded to half-maximal inhibition (IC50) and the “hERG/GSK-3β Ratio” value was 114. The IC50 at human GSK-3β was 140 nM.

Consider `O=C(NCC1CCOCC1)c1n[nH]c2ccc(-c3cnccc3CN3CCOCC3)cc12` [Compound 20, 5-(4-(Morpholinomethyl)pyridin-3-yl)-N-((tetrahydro-2H-pyran-4-yl)methyl)-1H-indazole-3-carboxamide carboxamide], for which, at hERG ion channel, the IC50 came out at 46 µM and the “hERG/GSK-3β Ratio” value was 2,487. The IC50 on human GSK-3β came out at 18.5 nM.

Take `CN(C)Cc1ccncc1-c1ccc2[nH]nc(C(=O)NCC3CCOCC3)c2c1` [Compound 21, 5-(4-((Dimethylamino)methyl)pyridin-3-yl)-N-((tetrahydro-2H-pyran-4-yl)methyl)-1H-indazole-3-carboxamide]: the IC50 at hERG ion channel was found to be 40 µM; on human GSK-3β, 220 nM. Besides, the “hERG/GSK-3β Ratio” value at hERG ion channel was found to be 182.

Turning to `O=C(NCC1CCOCC1)c1n[nH]c2ccc(-c3cnccc3CN3CCNCC3)cc12` [Compound 24, 5-(4-(piperazin-1-ylmethyl)pyridin-3-yl)-N-((tetrahydro-2H-pyran-4-yl)methyl)-1H-indazole-3-carboxamide], at hERG ion channel, the IC50 came to 93.8 µM and the “hERG/GSK-3β Ratio” value is 782. The IC50 at human GSK-3β stood at 120 nM.

For the molecule `O=C(NCC1CCOCC1)c1n[nH]c2ccc(-c3cncc(CN4CCOCC4)c3)cc12` [Compound 27, 5-(5-(morpholinomethyl)pyridin-3-yl)-N-((tetrahydro-2H-pyran-4-yl)methyl)-1H-indazole-3-carboxamide], on hERG ion channel, the IC50 was 3.5 µM and the “hERG/GSK-3β Ratio” value was determined as 269. In addition, the IC50 at human GSK-3β is 13 nM.

On to `CNCc1cncc(-c2ccc3[nH]nc(C(=O)NCC4CCOCC4)c3c2)c1` [Compound 28, 5-(5-((methylamino)methyl)pyridin-3-yl)-N-((tetrahydro-2H-pyran-4-yl)methyl)-1H-indazole-3-carboxamide], for which the IC50 was > 100 µM against hERG ion channel and 6 nM on human GSK-3β.
